In patent US10711000B2 (Fronthera U.S. Pharmaceuticals LLC, priority 2018, dated 2020):

Key:
[1] = Pharmacokinetics after a single oral dose in SD rats; assay type: in vivo; conditions: Sprague-Dawley, rat, plasma, single oral dose in 0.5% methylcellulose; for half-life: read-out: T½ (converted)
Text: The pharmacokinetics and pharmacodynamics of test compounds after a single oral dose were investigated in SD rats, Beagle dog and Cynomolgus monkey. SD Rats (200-250 g) were purchased from Beijing Vital River Laboratory Animal Technology Co., Ltd. Male Beagle Dog, 6-9 kg, were purchased from Beijing Mashall. Male Cynomolgus monkeys, 3-5 kg, were purchased from Suzhou Xishan Zhongke Drugs Research and Development Co., Ltd. Following arrival, the animals were acclimated for 7 days in individual cages maintained at ambient temperature, 34 to 68% relative humidity, and 12-h light/dark cycles. Just prior to dose administration the rats were fasted overnight with free access to water. Animals were given 10 mL/kg of formulated compound in 0.5% methylcellulose (MC) by oral gavage, and the animals were fed four hours after dosing. The animals were manually restrained at the designated time points (pre-dose, 0.5, 1, 3, 6, 9, 12, and 24 h post-dose) to collect blood. Approximately 120 μL of blood was collected via orbital sinus into K2EDTA tubes. The blood samples were centrifuged at 5000 rpm for 10 min at 4° C. to obtain plasma samples.
To determine the compound concentration in the plasma samples, a 10× calibration standard of compound were prepared by serial dilution in DMSO: 20000, 10000, 5000, 2000, 1000, 500, 200, 100, 50, 20, and 10 ng/mL. 3 μL of calibration standard solution was added into 27.0 μL of blank plasma in 1.5-mL microcentrifuge tubes to generate 1× calibration standards. The 30.0 μL of standards or study plasma was mixed with 200 μL of acetonitrile (containing 5 ng/mL verapamil for internal control) in a 1.5-mL microcentrifuge tube. After vertexing for 1 minute and centrifuging at 10000 rpm for 10 min, 180 μL of supernatant was transferred into a 96-well plate and the compound concentration in the plasma was quantitated using LC/MS/MS together with standards. Briefly, 1 μL of the solutions were injected for LC-MS/MS analysis using an Agilent Zorbax C18 column (50×2.1 mm, 3.5 μm) with mobile phase A [5 mM NH4Ac (0.1% FA)] and phase B [Methanol (0.1% FA)]. Mass spectrometer parameters optimization for compound was performed by infusing standard diluted at 1 μg/mL in water/methanol (1/1, v/v) directly in the ionization source at a flow of 10 μL/min. Quantitative data were acquired in multiple reaction monitoring (MRM) positive APCI mode.

[2] = Pharmacokinetics in beagle dogs; assay type: in vivo; conditions: male, dog, plasma, iv, I.V. (1 mg/kg)
[3] = Metabolic stability in liver microsomes; assay type: in vitro ADME; conditions: compound 1 μM; for metabolic stability (halftime in minutes), Dog: Beagle dog liver microsomes; for metabolic stability (halftime in minutes), Mouse: CD-1 mouse liver microsomes; for metabolic stability (halftime in minutes), Monkey: Cynomolgus monkey liver microsomes; for metabolic stability (halftime in minutes), Rat: SD rat liver microsomes
Experimental: The metabolic stability was examined in human, rat, mouse, dog and cynomolgus monkey liver microsomes. Compound (1 μM) was mixed with diluted liver microsomes from each of the 5 species and a small aliquot was taken at 0, 5, 10, 20, 30 and 60 minutes for HPLC MS/MS analysis. Intrinsic clearance and half-life were calculated.

Row | AUC [1] | Cmax [1] | half-life [1] | AUC [2] | C0 [2] | clearance [2] | half-life [2] | metabolic stability (halftime in minutes), Dog [3] | metabolic stability (halftime in minutes), Mouse [3] | metabolic stability (halftime in minutes), Monkey [3] | metabolic stability (halftime in minutes), Rat [3] | metabolic stability (halftime in minutes), Human [3] | Structure (SMILES)
1 | 2050 ± 884 ng·h/mL | 268 ± 76 ng/mL | 3.29 ± 0.25 h | 10700 ± 1810 ng·h/mL | 2290 ± 172 ng/mL | 1.53 ± 0.27 mL/min/kg | 5.06 ± 0.85 h | 71.9 min | 14.0 min | 9.8 min | 96.6 min | 24.5 min | CCc1nn2cc(F)c(N3CCN(CC(=O)N4CC(O)C4)CC3)cc2c1N(C)c1nc(-c2ccc(F)cc2)c(C#N)s1 [Example 101, 2-[[2-ethyl-6-fluoro-5-[4-[2-(3-hydroxyazetidin-1-yl)-2-oxo-ethyl]piperazin-1-yl]pyrazolo[1,5-a]pyridin-3-yl]-methyl-amino]-4-(4-fluorophenyl)thiazole-5-carbonitrile]
2 | 2620 ± 1920 ng·h/mL | 477 ± 250 ng/mL | 3.85 ± 1.3 h | 2190 ± 378 ng·h/mL | 786 ± 62 ng/mL | 7.68 ± 1.2 mL/min/kg | 3.35 ± 0.6 h | >145 min | 58.5 min | 21.3 min | >145 min | 75.4 min | CCn1nc2ncc(N3CC4(CN(C(=O)C5CCOCC5)C4)C3)cc2c1N(C)c1nc(-c2ccc(F)cc2)c(C#N)s1 [Compound 118, 2-((2-ethyl-5-(6-(tetrahydro-2H-pyran-4-carbonyl)-2,6-diazaspiro[3.3]heptan-2-yl)-2H-pyrazolo[3,4-b]pyridin-3-yl)(methyl)amino)-4-(4-fluorophenyl)thiazole-5-carbonitrile]
3 | 1260 ± 209 ng·h/mL | 889 ± 173 ng/mL | 3.15 ± 1.8 h | 8650 ± 328 ng·h/mL | 5120 ± 1380 ng/mL | 1.91 ± 0.07 mL/min/kg | 2.11 ± 1.23 h | 32.1 min | 10.3 min | 4.8 min | 9.2 min | 10.8 min | CCc1nc2c(C)cc(N3CCN(CC(=O)N4CC(O)C4)CC3)cn2c1N(C)c1nc(-c2ccc(F)cc2)c(C#N)s1 [GLPG1690]
4 | 7520 ± 498 ng·h/mL | 732 ± 95 ng/mL | 5.53 ± 0.2 h | 6480 ± 703 ng·h/mL | 1070 ± 34.4 ng/mL | 1.85 ± 0.28 mL/min/kg | 14.8 ± 0.57 h | 69.8 min | 17.9 min | 6.4 min | 67.3 min | 13.4 min | CCc1nn2cc(F)c(N3CC4(CN(C(=O)[C@H]5CCOC5)C4)C3)cc2c1N(C)c1nc(-c2ccc(F)cc2)c(C#N)s1 [Example 102, 2-[[2-ethyl-6-fluoro-5-[2-[(3S)-tetrahydrofuran-3-carbonyl]-2,6-diazaspiro[3.3]heptan-6-yl]pyrazolo[1,5-a]pyridin-3-yl]-methyl-amino]-4-(4-fluorophenyl)thiazole-5-carbonitrile]
